Values joined by “and” are separate entries in the source; they are usually repeats but may differ in a detail not shown here. Equal entries are not always repeated. Structures can show the parent of a compound that is named as a salt.

Chain of rNHE3 (P26433 29-831): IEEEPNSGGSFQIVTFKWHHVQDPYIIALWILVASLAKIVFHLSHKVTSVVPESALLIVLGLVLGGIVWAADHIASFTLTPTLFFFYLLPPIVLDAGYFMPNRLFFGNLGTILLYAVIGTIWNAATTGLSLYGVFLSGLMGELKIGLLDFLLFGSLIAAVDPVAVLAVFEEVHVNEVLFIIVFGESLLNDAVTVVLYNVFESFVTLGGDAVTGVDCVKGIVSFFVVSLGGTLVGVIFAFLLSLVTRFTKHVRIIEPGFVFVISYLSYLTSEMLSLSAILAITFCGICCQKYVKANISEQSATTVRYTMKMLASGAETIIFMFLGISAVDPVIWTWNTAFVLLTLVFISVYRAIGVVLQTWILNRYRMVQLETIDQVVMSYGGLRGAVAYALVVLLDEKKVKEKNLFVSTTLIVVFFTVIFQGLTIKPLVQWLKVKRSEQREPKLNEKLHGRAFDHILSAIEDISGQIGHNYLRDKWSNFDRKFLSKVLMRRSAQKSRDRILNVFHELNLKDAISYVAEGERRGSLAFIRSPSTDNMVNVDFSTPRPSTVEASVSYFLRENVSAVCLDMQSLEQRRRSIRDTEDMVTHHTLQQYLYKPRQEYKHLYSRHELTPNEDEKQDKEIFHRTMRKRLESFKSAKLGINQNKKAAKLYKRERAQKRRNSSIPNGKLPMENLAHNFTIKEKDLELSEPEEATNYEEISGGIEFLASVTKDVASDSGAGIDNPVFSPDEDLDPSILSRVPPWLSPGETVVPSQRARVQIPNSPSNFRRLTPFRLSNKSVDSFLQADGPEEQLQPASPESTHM

The first data set addresses rNHE3 (Rattus norvegicus, UniProt P26433). The data set can be described thus: recovery of the intracellular pH (pHi) after acidification, BCECF fluorescence, NHE inhibition. Format: cell-based. The settings on record: pH recovery recorded for three minutes in the case of NHE3; bicarbonate-free conditions. On the procedure:
In this test, the recovery of the intracellular pH (pHi) after an acidification was determined which commences with functional NHE even under bicarbonate-free conditions. For this, the pHi was determined using the pH-sensitive fluorescent dye BCECF (Calbiochem, the precursor BCECF-AM was employed). The cells were first loaded with BCECF. The BCECF fluorescence was determined in a “Ratio Fluorescence Spectrometer” (Photon Technology International, South Brunswick, N.J., USA) at excitation wavelengths of 505 and 440 nm and an emission wavelength of 535 nm and converted into the pHi by means of calibration curves. The cells were incubated in NH4Cl buffer (pH 7.4) even in the case of BCECF loading (NH4Cl buffer: 115 mM NaCl, 20 mM NH4Cl, 5 mM KCl, 1 mM CaCl2, 1 mM MgSO4, 20 mM Hepes, 5 mM glucose, 1 mg/ml of BSA; a pH of 7.4 is set using 1 M NaOH). The intracellular acidification was induced by addition of 975 μl of an NH4Cl-free buffer (see below) to 25 μl aliquots of the cells incubated in NH4Cl buffer. The subsequent rate of pH recovery was recorded for two minutes in the case of NHE1, for five minutes in the case of NHE2, and for three minutes in the case of NHE3. For the calculation of the inhibitory potency of the substances tested, the cells were first investigated in buffers in which a complete pH recovery or no pH recovery at all took place. For the complete pH recovery (100%), the cells were incubated in Na+-containing buffer (133.8 mM NaCl, 4.7 mM KCl, 1.25 mM CaCl2, 1.25 mM MgCl2, 0.97 mM […], 0.23 mM […], 5 mM Hepes, 5 mM glucose; a pH of 7.0 is set using 1 M NaOH). For the determination of the 0% value, the cells were incubated in an Na+-free buffer (133.8 mM choline chloride, 4.7 mM KCl, 1.25 mM CaCl2, 1.25 mM MgCl2, 0.97 mM K2HPO4, 0.23 mM KH2PO4, 5 mM Hepes, 5 mM glucose; a pH of 7.0 is set using 1 M NaOH). The substances to be tested were applied in the Na+-containing buffer. The recovery of the intracellular pH at each tested concentration of a substance was expressed in percent of the maximum recovery. The IC value of the respective substance for the individual NHE subtypes was calculated from the percentage values of the pH recovery by means of the program Sigma-Plot.
One may read the IC50 as the concentration that inhibits the measured activity by half. As for `Clc1cccc(Cl)c1Nc1nc2ccccc2[nH]1` [Example 1, (1H-Benzimidazol-2-yl)-(2,6-dichlorophenyl)amine hydrochloride], the 50% inhibitory concentration (IC50) worked out at 0.53 µM. In other words, the sub-micromolar range.
Turning to `Cl.Oc1cccc2[nH]c(Nc3c(Cl)cccc3Cl)nc12` [Example 2, 2-(2,6-Dichlorophenylamino)-1H-benzimidazol-4-ol Hydrochloride], the IC50 came out at 0.47 µM.
`Cc1cccc(C)c1Nc1nc2ccccc2[nH]1` [Example 3, (1H-Benzimidazol-2-yl)-(2,6-dimethylphenyl)amine trifluoracetate] showed an IC50 of 0.64 µM.
Same read-out and setting: then `Cc1cccc(Cl)c1Nc1nc2ccccc2[nH]1` [Example 4, (1H-Benzimidazol-2-yl)-(2-chloro-6-methylphenyl)amine hydrochloride], with 0.49 µM; and `Fc1cc2nc(Nc3c(Cl)cccc3Cl)[nH]c2cc1F` [Example 5, (2,6-Dichlorophenyl)-(5,6-difluoro-1H-benzimidazol-2-yl)amine hydrochloride], with 0.78 µM; and `Cc1cccc2[nH]c(Nc3c(Cl)cccc3Cl)nc12` [Example 6, (2,6-Dichlorophenyl)-(4-methyl-1H-benzimidazol-2-yl)amine trifluoracetate], with 0.39 µM.
On the same count and under the same terms, then `Fc1cccc(Cl)c1Nc1nc2ccccc2[nH]1` [Example 7, (1H-Benzimidazol-2-yl)-(2-chloro-6-fluorophenyl)amine hydrochloride], with 0.52 µM.
Same read-out and setting: to `Brc1cccc(Br)c1Nc1nc2ccccc2[nH]1` [Example 8, (1H-Benzimidazol-2-yl)-(2,6-dibromophenyl)amine trifluoroacetate] belongs 0.65 µM; to `Fc1ccc2[nH]c(Nc3c(Cl)cccc3Cl)nc2c1` [Example 9, 2-(2,6-Dichlorophenylamino)-5-fluorobenzimidazole hydrochloride], 1 µM.
`Cl.Fc1cccc2nc(Nc3c(Cl)cccc3Cl)[nH]c12` [Example 10, 2-(2,6-Dichlorophenylamino)-4-fluorobenzimidazole hydrochloride] showed an IC50 of 3.2 µM.
Same read-out and setting: then `FC(F)(F)c1cccc(Cl)c1Nc1nc2ccccc2[nH]1` [Example 11, 2-(2-Trifluoromethyl-6-chlorophenylamino)benzimidazole hydrochloride], with 0.83 µM; and `Cl.Fc1ccc2nc(Nc3c(Cl)cccc3Cl)[nH]c2c1F` [Example 12, 2-(2,6-Dichlorophenylamino)-4,5-difluorobenzimidazole hydrochloride], with 2.9 µM.
Still for that read-out and setting: then `Oc1ccc2[nH]c(Nc3c(Cl)cccc3Cl)nc2c1` [Example 13, 2-(2,6-Dichlorophenylamino)-5-hydroxybenzimidazole hydrobromide], with 1.1 µM.
In turn, `Fc1c(F)c(F)c2[nH]c(Nc3c(Cl)cccc3Cl)nc2c1F` [Example 14, 2-(2,6-Dichlorophenylamino)-4,5,6,7-tetrafluorobenzimidazole hydrochloride] showed an IC50 of 5.6 µM. Against the preceding compound, the IC50 is about 5.1-fold higher.
The same measure, in the same setting: then `Cl.Fc1cc(F)c2[nH]c(Nc3c(Cl)cccc3Cl)nc2c1` [Example 15, 2-(2,6-Dichlorophenylamino)-4,6-difluorobenzimidazole hydrochloride], with 1.6 µM; and `Clc1ccccc1Nc1nc2ccccc2[nH]1` [Example 16, (1H-Benzimidazol-2-yl)-(2-chlorophenyl)amine trifluoroacetate], with 0.63 µM; and `FC(F)(F)c1ccccc1Nc1nc2ccccc2[nH]1` [Example 17, (1H-Benzimidazol-2-yl)-(2-trifluoromethylphenyl)amine trifluoroacetate], with 3.5 µM.
`Brc1ccccc1Nc1nc2ccccc2[nH]1` [Example 18, (1H-Benzimidazol-2-yl)-(2-bromophenyl)amine trifluoroacetate] registered a half-inhibitory concentration (IC50) of 1.2 µM. Compared with the last compound, the IC50 is about 2.9-fold lower.
Still for that read-out and setting: then `Cc1ccccc1Nc1nc2ccccc2[nH]1` [Example 19, (1H-Benzimidazol-2-yl)-o-tolylamine hydrochloride], with 3.5 µM.

Tested on in a further data set: not given
Test: not given
Details: not given
What is called melting point is the temperature, or range, at which the solid turns liquid. `Oc1ccc2[nH]c(Nc3c(Cl)cccc3Cl)nc2c1` (as salt: hydrobromid) [Example 13, 2-(2,6-Dichlorophenylamino)-5-hydroxybenzimidazole hydrobromide] returned a melting point of 265 to 269 °C.
In turn, `Fc1ccc2[nH]c(Nc3c(Cl)cccc3Cl)nc2c1` (as salt: hydrochloride) [Example 9, 2-(2,6-Dichlorophenylamino)-5-fluorobenzimidazole hydrochloride] yielded a melting point of 294 to 296 °C.
In turn, `FC(F)(F)c1cccc(Cl)c1Nc1nc2ccccc2[nH]1` (as salt: hydrochloride) [Example 11, 2-(2-Trifluoromethyl-6-chlorophenylamino)benzimidazole hydrochloride] returned a melting point of 255 to 288 °C.
Turning to `Fc1c(F)c(F)c2[nH]c(Nc3c(Cl)cccc3Cl)nc2c1F` (as salt: hydrochloride) [Example 14, 2-(2,6-Dichlorophenylamino)-4,5,6,7-tetrafluorobenzimidazole hydrochloride], the melting point lay within 220 to 222 °C.
The compound `Cl.Oc1cccc2[nH]c(Nc3c(Cl)cccc3Cl)nc12` [Example 2, 2-(2,6-Dichlorophenylamino)-1H-benzimidazol-4-ol Hydrochloride] showed a melting point of 333 to 335 °C.
On to `Cl.Fc1cccc2nc(Nc3c(Cl)cccc3Cl)[nH]c12` [Example 10, 2-(2,6-Dichlorophenylamino)-4-fluorobenzimidazole hydrochloride], for which the melting point is 268 to 296 °C.
Turning to `Cl.Fc1ccc2nc(Nc3c(Cl)cccc3Cl)[nH]c2c1F` [Example 12, 2-(2,6-Dichlorophenylamino)-4,5-difluorobenzimidazole hydrochloride], the melting point was 232 to 234 °C and 228 to 230 °C.
Same read-out and setting: then `Cl.Fc1cc(F)c2[nH]c(Nc3c(Cl)cccc3Cl)nc2c1` [Example 15, 2-(2,6-Dichlorophenylamino)-4,6-difluorobenzimidazole hydrochloride], with 310 to 314 °C.

These data come from patent publication US6958357B2, “Substituted benzimidazoles, processes for their preparation, their use as medicaments, and medicaments comprising them” (Aventis Pharma Deutschland GmbH, priority 2000, dated 2005).
